According to US11053234B2 (GlaxoSmithKline Intellectual Property Development Limited, priority 2016, dated 2021):

Target: T1, haematopoietic prostaglandin D synthase (H-PGDS) (Homo sapiens, UniProt O60760)
T1 construct: Full length human H-PGDS cDNA (Invitrogen Ultimate ORF 10H13026) was amplified by PCR; 6-His (N); TEV protease cleavage site (N); made in house; host or cells: E. coli BL21 (DE3*), vector pET22b+
Experiment: H-PGDS RapidFire high throughput mass spectrometry assay (conversion of PGH2 to PGD2)
Assay type: biochemical
Settings: 10 nM H-PGDS, PGH2 formed in situ by COX-2 from arachidonic acid; read-out: Potency Range (mean pIC50) (converted)
Outline: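 RapidFire SPE–MS read-out calculated percent conversion from relative PGD2 and PGF2α (substrate surrogate) levels. Recombinant full-length human H-PGDS (His-tag, E. coli) turned over PGH2, produced in situ at ˜10 μM by human COX-2 (FLAG-tag, Sf9 cells) acting on arachidonic acid.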

T1 sequence (O60760 whole entry): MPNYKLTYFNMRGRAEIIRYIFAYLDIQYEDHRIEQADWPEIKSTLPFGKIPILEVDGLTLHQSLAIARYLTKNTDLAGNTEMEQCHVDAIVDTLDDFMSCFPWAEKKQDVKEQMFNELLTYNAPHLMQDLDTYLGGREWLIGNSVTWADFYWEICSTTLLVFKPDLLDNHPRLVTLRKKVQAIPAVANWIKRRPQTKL

Question: Which IC50 does the source give for O=C(Nc1cc(C2CC2)n[nH]1)[C@H]1C[C@H](Oc2cccc3scnc23)C1 [Example 302, (trans)-3-(Benzo[d]thiazol-4-yloxy)-N-(3-cyclopropyl-1H-pyrazol-5-yl)cyclobutanecarboxamide] here?
Answer: Its IC50 is 10 to 79.4 nM.

Question: Which IC50 does the source give for CC1(NC(=O)[C@H]2C[C@H](Oc3cc(F)cc4scnc34)C2)CN(c2ncccn2)C1 [Example 238, (trans)-3-((6-Fluorobenzo[d]thiazol-4-yl)oxy)-N-(3-methyl-1-(pyrimidin-2-yl)azetidin-3-yl)cyclobutanecarboxamide] here?
Answer: Its IC50 is 100 to 1000 nM.

Question: With CC1C(Oc2cccc3scnc23)CN1C(=O)N[C@H]1CC[C@H](C(C)(C)O)CC1 (mixture of isomers) [Example 240, Racemic 3-(Benzo[d]thiazol-4-yloxy)-N-((trans)-4-(2-hydroxypropan-2-yl)cyclohexyl)-2-methylazetidine-1-carboxamide] as the molecule, how does the IC50 read?
Answer: The IC50 was 10 to 79.4 nM.

Question: How did the IC50 turn out when COC(=O)N1CCOC(CNC(=O)N2CC(Oc3cccc4scnc34)C2)C1 (racemic) [Example 94, Racemic Methyl 2-((3-(benzo[d]thiazol-4-yloxy)azetidine-1-carboxamido)methyl)morpholine-4-carboxylate] was run?
Answer: The IC50 was 100 to 1000 nM.

Question: Cc1ccc(N2CC(NC(=O)[C@H]3C[C@H](Oc4cc(F)cc5scnc45)C3)C2)nc1 [Example 231, (trans)-3-((6-Fluorobenzo[d]thiazol-4-yl)oxy)-N-(1-(5-methylpyridin-2-yl)azetidin-3-yl)cyclobutanecarboxamide] was tested. Which IC50 did it give?
Answer: Its IC50 is 10 to 79.4 nM.

Question: For CC1(NC(=O)[C@H]2C[C@H](Oc3cc(F)cc4scnc34)C2)CN(c2cccnn2)C1 [Example 237, (trans)-3-((6-Fluorobenzo[d]thiazol-4-yl)oxy)-N-(3-methyl-1-(pyridazin-3-yl)azetidin-3-yl)cyclobutanecarboxamide], which IC50 is on record?
Answer: Its IC50 is 100 to 1000 nM.

Question: COc1ccc(F)cc1O[C@H]1C[C@H](C(=O)N[C@H]2CC[C@H](OCC(C)(C)O)CC2)C1 [Example 169, (trans)-3-(5-Fluoro-2-methoxyphenoxy)-N-((trans)-4-(2-hydroxy-2-methylpropoxy)cyclohexyl)cyclobutanecarboxamide] was tested. Which IC50 did it give?
Answer: The IC50 was 10 to 79.4 nM.

Question: Cc1coc2c(O[C@H]3C[C@H](C(=O)N[C@H]4CC[C@H](C(C)(C)O)CC4)C3)cccc12 [Example 270, (trans)-N-((trans)-4-(2-Hydroxypropan-2-yl)cyclohexyl)-3-((3-methylbenzofuran-7-yl)oxy)cyclobutanecarboxamide] was tested. Which IC50 did it give?
Answer: The IC50 was 100 to 1000 nM.

Question: How did the IC50 turn out when CC(C)(O)[C@H]1CC[C@H](NC(=O)[C@H]2C[C@H](Oc3ccccc3Cl)C2)CC1 [Example 282, (trans)-3-(2-Chlorophenoxy)-N-((trans)-4-(2-hydroxypropan-2-yl)cyclohexyl)cyclobutanecarboxamide] was run?
Answer: Its IC50 is 100 to 1000 nM.

Question: Which IC50 does the source give for COCCO[C@H]1CC[C@H](NC(=O)[C@H]2C[C@H](Oc3cc(F)cc4scnc34)C2)CC1 [Example 115, (trans)-3-((6-Fluorobenzo[d]thiazol-4-yl)oxy)-N-((trans)-4-(2-methoxyethoxy)cyclohexyl)cyclobutanecarboxamide] here?
Answer: Its IC50 is 100 to 1000 nM.

Question: With COc1ccc(F)cc1O[C@H]1C[C@H](C(=O)NC2CCN(C(=O)OC(C)(C)C)C2)C1 (mixture of isomers) [Example 143, tert-butyl 3-((trans)-3-(5-fluoro-2-methoxyphenoxy)cyclobutanecarboxamido)pyrrolidine-1-carboxylate] as the molecule, how does the IC50 read?
Answer: Its IC50 is 10 to 79.4 nM.

Question: With O=C(N[C@H]1CC[C@H](C(O)C2CC2)CC1)[C@H]1C[C@H](Oc2cc(F)ccc2OC(F)F)C1 (mixture of isomers) [Example 27, Racemic (trans)-N-((trans)-4-(Cyclopropyl(hydroxy)methyl)cyclohexyl)-3-(2-(difluoromethoxy)-5-fluorophenoxy)cyclobutanecarboxamide] as the molecule, how does the IC50 read?
Answer: The IC50 was 10 to 79.4 nM.

Question: For Cc1ccc(N2CC(NC(=O)[C@H]3C[C@H](Oc4cc(F)cc5scnc45)C3)C2)[n+]([O-])c1 [Example 111, 2-(3-((trans)-3-((6-Fluorobenzo[d]thiazol-4-yl)oxy)cyclobutanecarboxamido)azetidin-1-yl)-5-methylpyridine 1-oxide], which IC50 is on record?
Answer: Its IC50 is 100 to 1000 nM.

Question: How did the IC50 turn out when O=C(O)c1csc(NC(=O)[C@H]2C[C@H](Oc3cccc4cccnc34)C2)n1 [Example 193, 2-((trans)-3-(Quinolin-8-yloxy)cyclobutanecarboxamido)thiazole-4-carboxylic acid] was run?
Answer: The IC50 was 10 to 79.4 nM.

Question: CC(N[C@H]1CC[C@H](NC(=O)[C@H]2C[C@H](Oc3cccc4cccnc34)C2)CC1)C(F)(F)F (mixture of isomers) [Example 173, Racemic (trans)-3-(Quinolin-8-yloxy)-N-((trans)-4-((1,1,1-trifluoropropan-2-yl)amino)cyclohexyl)cyclobutanecarboxamide] was tested. Which IC50 did it give?
Answer: The IC50 was 10 to 79.4 nM.

Question: Which IC50 does the source give for O=C(NC1CN(c2ccnc(Cl)n2)C1)[C@H]1C[C@H](Oc2cccc3scnc23)C1 [Example 69, (trans)-3-(Benzo[d]thiazol-4-yloxy)-N-(1-(2-chloropyrimidin-4-yl)azetidin-3-yl)cyclobutanecarboxamide] here?
Answer: The IC50 was 10 to 79.4 nM.

Question: Which IC50 does the source give for CC(C)(O)[C@@H]1CC[C@@H](NC(=O)N2CC(Oc3cccc4scnc34)C2)CO1 (racemic) [Example 104, Racemic 3-(Benzo[d]thiazol-4-yloxy)-N-((trans)-6-(2-hydroxypropan-2-yl)tetrahydro-2H-pyran-3-yl)azetidine-1-carboxamide] here?
Answer: Its IC50 is 10 to 79.4 nM.

Question: With COC(=O)C12CCC(NC(=O)[C@H]3C[C@H](Oc4cccc5scnc45)C3)(CC1)CC2 [Example 326, Methyl 4-((trans)-3-(benzo[d]thiazol-4-yloxy)cyclobutane-1-carboxamido)bicyclo[2.2.2]octane-1-carboxylate] as the molecule, how does the IC50 read?
Answer: The IC50 was 10 to 79.4 nM.

Question: For O=C(NC1CN(c2ncccn2)C1)[C@H]1C[C@H](Oc2cc(F)ccc2OC(F)F)C1 [Example 17, (trans)-3-(2-(Difluoromethoxy)-5-fluorophenoxy)-N-(1-(pyrimidin-2-yl)azetidin-3-yl)cyclobutanecarboxamide], which IC50 is on record?
Answer: Its IC50 is 10 to 79.4 nM.

Question: O=C(NC1CN(c2ccccn2)C1)N1CC(Oc2cc(F)cc3scnc23)C1 [Example 132, 3-((6-Fluorobenzo[d]thiazol-4-yl)oxy)-N-(1-(pyridin-2-yl)azetidin-3-yl)azetidine-1-carboxamide] was tested. Which IC50 did it give?
Answer: Its IC50 is 10 to 79.4 nM.

Question: O=C(Nc1ccccn1)[C@H]1C[C@H](Oc2cccc3cccnc23)C1 [Example 183, (trans)-N-(Pyridin-2-yl)-3-(quinolin-8-yloxy)cyclobutanecarboxamide] was tested. Which IC50 did it give?
Answer: The IC50 was 100 to 1000 nM.

Question: How did the IC50 turn out when Cc1nnc(NC(=O)N2CC(Oc3cccc4scnc34)C2)s1 [Example 321, 3-(Benzo[d]thiazol-4-yloxy)-N-(5-methyl-1,3,4-thiadiazol-2-yl)azetidine-1-carboxamide] was run?
Answer: Its IC50 is 10 to 79.4 nM.

Question: With O=C(NC1CN(c2cnccn2)C1)[C@H]1C[C@H](Oc2cccc3scnc23)C1 [Example 246, (trans)-3-(Benzo[d]thiazol-4-yloxy)-N-(1-(pyrazin-2-yl)azetidin-3-yl)cyclobutanecarboxamide] as the molecule, how does the IC50 read?
Answer: Its IC50 is 10 to 79.4 nM.

Question: Which IC50 does the source give for O=C(NC1CCCCC1)[C@H]1C[C@H](Oc2cccc3scnc23)C1 [Example 253] here?
Answer: The IC50 was 100 to 1000 nM.

Question: CC(C)(O)[C@H]1CC[C@H](NC(=O)[C@H]2C[C@H](Oc3cccc4scnc34)C2)CC1 [Example 109, (trans)-3-(Benzo[d]thiazol-4-yloxy)-N-((trans)-4-(2-hydroxypropan-2-yl)cyclohexyl)cyclobutanecarboxamide] was tested. Which IC50 did it give?
Answer: Its IC50 is 10 to 79.4 nM.

Question: For O=C(NC1CN(c2ccc(F)cn2)C1)[C@H]1C[C@H](Oc2cccc3scnc23)C1 [Example 44, (trans)-3-(Benzo[d]thiazol-4-yloxy)-N-(1-(5-fluoropyridin-2-yl)azetidin-3-yl)cyclobutanecarboxamide], which IC50 is on record?
Answer: The IC50 was 10 to 79.4 nM.

Question: Which IC50 does the source give for CC(C)(O)C1CC2(CC(NC(=O)[C@H]3C[C@H](Oc4cc(F)cc5scnc45)C3)C2)C1 (mixture of isomers) [Example 116, Racemic (trans)-3-((6-Fluorobenzo[d]thiazol-4-yl)oxy)-N-(6-(2-hydroxypropan-2-yl)spiro[3.3]heptan-2-yl)cyclobutanecarboxamide] here?
Answer: The IC50 was 10 to 79.4 nM.

Question: For CC(C)(O)[C@H]1CC[C@H](NC(=O)[C@H]2C[C@H](Oc3cc(F)cc(Cl)c3)C2)CC1 [Example 290, (trans)-3-(3-Chloro-5-fluorophenoxy)-N-((trans)-4-(2-hydroxypropan-2-yl)cyclohexyl)cyclobutanecarboxamide], which IC50 is on record?
Answer: Its IC50 is 100 to 1000 nM.

Question: Which IC50 does the source give for O=C(NC1CCc2ccccc21)[C@H]1C[C@H](Oc2cccc(Cl)c2)C1 (mixture of isomers) [Example 286, Racemic (trans)-3-(3-Chlorophenoxy)-N-(2,3-dihydro-1H-inden-1-yl)cyclobutanecarboxamide] here?
Answer: Its IC50 is 10 to 79.4 nM.

Question: How did the IC50 turn out when O=C(NC1CN(CC(F)F)C1)[C@H]1C[C@H](Oc2cc(F)ccc2OC(F)F)C1 [Example 15, (trans)-N-(1-(2,2-Difluoroethyl)azetidin-3-yl)-3-(2-(difluoromethoxy)-5-fluorophenoxy)cyclobutanecarboxamide] was run?
Answer: Its IC50 is 100 to 1000 nM.

Question: Which IC50 does the source give for CC(=O)c1csc(NC(=O)[C@H]2C[C@H](Oc3cccc4c(Br)coc34)C2)n1 [Example 271, (trans)-N-(4-Acetylthiazol-2-yl)-3-((3-bromobenzofuran-7-yl)oxy)cyclobutanecarboxamide] here?
Answer: Its IC50 is 10 to 79.4 nM.

Question: COc1cc(F)ccc1O[C@H]1C[C@H](C(=O)N[C@H]2CC[C@H](C(C)(C)O)CC2)C1 [Example 277, (trans)-3-(4-Fluoro-2-methoxyphenoxy)-N-((trans)-4-(2-hydroxypropan-2-yl)cyclohexyl)cyclobutanecarboxamide] was tested. Which IC50 did it give?
Answer: Its IC50 is 100 to 1000 nM.

Question: How did the IC50 turn out when CC(C)(O)Cc1cnc(NC(=O)[C@H]2C[C@H](Oc3cccc4cccnc34)C2)s1 [Example 213, (trans)-N-(5-(2-Hydroxy-2-methylpropyl)thiazol-2-yl)-3-(quinolin-8-yloxy)cyclobutanecarboxamide] was run?
Answer: The IC50 was 10 to 79.4 nM.

Question: How did the IC50 turn out when O=C(c1csc(NC(=O)[C@H]2C[C@H](Oc3cccc4cccnc34)C2)n1)C1CC1 [Example 194, (trans)-N-(4-(Cyclopropanecarbonyl)thiazol-2-yl)-3-(quinolin-8-yloxy)cyclobutanecarboxamide] was run?
Answer: Its IC50 is 10 to 79.4 nM.
